Results published in US20250084079A1, “COMPOSITIONS AND METHODS FOR INHIBITION OF RAS” (TheRas, Inc., priority 2022, published 2025).
Like-named read-outs stand apart in the source and are kept apart here.

How the values were obtained:
[1] = target: T1, Avi-KRAS G12D (1-169) GppNHp/RAF1 RBD-3xFLAG (52-151) (Homo sapiens, UniProt P01116, G12D); test: RAS-effector PPI HTRF disruption assay, Raf1-GppNHp-KRAS G12D; assay type: biochemical
T1 construct: 100 nM Avi-KRAS G12D (1-169) GppNHp
Experimental: (§1) A protein:protein interaction (PPI) Homogeneous Time Resolved Fluorescence (HTRF) assay was used to determine the effectiveness of compounds of the present disclosure in disrupting KRAS protein and effector (RAF1 or PIK3 CA) binding.
(§2) The HTRF assay used the following reagents and proteins: (i) 375 nM Avi-KRAS G12D/Q25A (1-169) GppNHp/3×FLAG-PI3KCA (157-299); (ii) 100 nM Avi-KRAS G12D (1-169) GppNHp/RAF1 RBD-3×FLAG (52-151); (iii) 50 nM Avi-KRAS G12V (1-169) GppNHp/RAF1 RBD-3×FLAG (52-151); (iv) 50 nM Avi-KRAS WT (1-169) GppNHp/RAF1 RBD-3×FLAG (52-151); and (v) 35 nM Avi-PI3K RBD CA-3×FLAG; Assay Buffer: 50 mM Tris pH 7.5, 100 mM NaCl, 5 mM MgCl2, 0.1% BSA, 0.01% Tween, 1 mM TCEP, 10% DMSO; Bead Buffer: 50 mM Tris pH 7.5, 0.01% Tween 20; Assay volume: 20 μL (384 well plate-low volume format); and Compound titration: 100-0.02 μM, 3× dilution series.
(§3) The HTRF assay employed the following protocol:
(§4) Compounds were dispensed in assay plate (384-well, Grenier Bione #784075) using Echo (model 555) with dose response settings: 200 nL final volume, titration from 100 μM as a 10-point dilution series. Protein mix was prepared in assay buffer, and dispensed on plates, 10 μL per well, then incubated for 1 h at room temperature, with 700 rpm shaking. Reagents mix was prepared and dispensed on plates, 10 μL per well, then incubated for 1 h at room temperature, with 700 rpm shaking.
(§5) Plates were analyzed on an Envision plate reader using the following setting: Excitation 320 nm, Bandwidth […]; Emission 615 nm, Bandwidth […], Gain 100%, Flashes 100, Lag 60 μs. Data was reported as percentage of activity, with DMSO as 100%. Data was plotted and analyzed using Prism 8. The SPR Kd, biochemical Raf1-KRAS G12D/G12V/WT-GppNHP and PI3KCA-KRAS G12D/Q25A-GppNHp disruption assay IC50 of selected compounds described herein are shown in Table 4.

[2] = tested on: pERK in GP2d cells (KRAS G12D); test: Cell-based pERK HTRF assay in GP2d cell; details: 60 min incubation
Experimental: A pERK assay (Perkin Elmer) was used to determine the effectiveness of compounds in disrupting KRAS G12D protein/effector signaling in cells.
On Day 1, cells (GP2d) were seeded into 96-well plates at 3×10^4 cells/well in 80 μL complete growth media (DMEM, 10% FBS).
On Day 2, cells were treated with compounds at 0.25% DMSO. The source plate was created with compounds diluted in media at 5-fold the final assay concentration. The compounds were run in a 9-point concentration curve starting at 1 μM, with a half-log dilution between concentrations. 20 μL was transferred onto the cell plates (final volume in wells was 100 μL). Plates were harvested after 60 min incubation by aspirating media and adding kit-supplied 1× supplemented lysis buffer to all wells (50 μL per well). Plates were then placed on a plate shaker and incubated at 850 rpm for an additional 30 min.
Antibody mixture solution is prepared by diluting aliquoted d2 and Eu Cryptate antibodies 1:20 in kit supplied detection buffer, mix the diluted antibodies solutions (1:1 v:v). 4 μL of this solution is then added to a 384-well detection plate (Perkin Elmer; 6008230).
Samples were homogenized by pipetting up and down and then transferred (16 μL of cell lysates) from the 96-well cell culture plate to two wells of the HTRF 384-well detection plate containing the antibody solution. Plates were centrifuged (524 g for 1 min) and allowed to incubate between 4 and 24 h at room temperature. Maximum signal is reached after 4 h incubation time and remains stable over a period of 24 hours. Therefore, readings can be made between 4 and 24 h of incubation. Plates were centrifuged again (524 g for Imin), then analyzed on the EnVision plate reader using the following settings: Excitation 320 nm, Bandwidth 75 nm; Emission 615 nm, Bandwidth 85 nm; Gain 100%; Flashes 100; Lag 60 μs.

[3] = target: T2, Avi-KRAS G12V (1-169) GppNHp/RAF1 RBD-3xFLAG (52-151) (Homo sapiens, UniProt P01116, G12V); test: RAS-effector PPI HTRF disruption assay, Raf1-GppNHp-KRAS G12V; assay type: biochemical
T2 construct: 50 nM Avi-KRAS G12V (1-169) GppNHp
T2 sequence (P01116 1-169 isoform P01116-2 G12V): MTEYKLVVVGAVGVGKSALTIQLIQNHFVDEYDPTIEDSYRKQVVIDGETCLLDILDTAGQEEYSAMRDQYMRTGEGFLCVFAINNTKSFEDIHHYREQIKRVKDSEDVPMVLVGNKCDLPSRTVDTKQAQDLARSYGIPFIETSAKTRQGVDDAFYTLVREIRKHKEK
Experimental: as §1, §2, §3, §4, §5

[4] = target: T3, Avi-KRAS G12D/Q25A (1-169) GppNHp/3xFLAG-PI3KCA (157-299) (Homo sapiens, UniProt P01116, G12D/Q25A); test: RAS-effector PPI HTRF disruption assay, PI3KCA-GppNHp-KRAS G12D/Q25A; assay type: biochemical
T3 construct: 375 nM Avi-KRAS G12D/Q25A (1-169) GppNHp
T3 sequence (P01116 1-169 isoform P01116-2 G12D/Q25A): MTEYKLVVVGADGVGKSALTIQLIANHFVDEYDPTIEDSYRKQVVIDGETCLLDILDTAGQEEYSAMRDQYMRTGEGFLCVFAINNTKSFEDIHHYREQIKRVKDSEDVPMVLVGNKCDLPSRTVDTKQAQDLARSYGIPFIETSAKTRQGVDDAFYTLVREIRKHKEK
Experimental: as §1, §2, §3, §4, §5

[5] = target: T4, Avi-KRAS WT (1-169) GppNHp/RAF1 RBD-3xFLAG (52-151) (Homo sapiens, UniProt P01116); test: RAS-effector PPI HTRF disruption assay, Raf1-GppNHp-KRAS WT; assay type: biochemical
T4 construct: 50 nM Avi-KRAS WT (1-169) GppNHp
T4 sequence (P01116 1-169 isoform P01116-2): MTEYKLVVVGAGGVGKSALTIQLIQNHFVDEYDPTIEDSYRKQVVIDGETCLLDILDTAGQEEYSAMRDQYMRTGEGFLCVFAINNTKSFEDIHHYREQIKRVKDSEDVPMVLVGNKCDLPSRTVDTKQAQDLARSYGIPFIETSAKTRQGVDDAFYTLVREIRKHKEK
Experimental: as §1, §2, §3, §4, §5

T1 sequence (P01116 1-169 isoform P01116-2 G12D): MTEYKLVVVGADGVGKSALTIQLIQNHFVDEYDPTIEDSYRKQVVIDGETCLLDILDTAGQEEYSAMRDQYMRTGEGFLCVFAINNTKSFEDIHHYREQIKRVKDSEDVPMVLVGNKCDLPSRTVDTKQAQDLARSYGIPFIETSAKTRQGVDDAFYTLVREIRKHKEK

| Structure (SMILES) | IC50 [1] | IC50 ([2]; GP2d, 1 h) | IC50 [3] | IC50 [4] | IC50 [5] | IC50 ([2]; read-out: pERK-Gp2D-1 hr) |
| --- | --- | --- | --- | --- | --- | --- |
| C[C@@H]1C[C@H](Oc2nc(OC[C@@]34CCCN3C[C@H](F)C4)nc3c(F)c(-c4ccc(F)c5sc(N)c(C#N)c45)c(Cl)cc23)CN1 (atropisomer, axis not shown) [Compound 60] | 100 to 1000 nM |  | 100 to 1000 nM | 100 to 1000 nM | 100 to 1000 nM | ≤ 100 nM |
| C[C@@H]1C[C@H](Oc2nc(OC[C@@]34CCCN3C[C@H](F)C4)nc3c(F)c(-c4ccc(F)c5sc(N)c(C#N)c45)c(Cl)cc23)CN1 (atropisomer, axis not shown) [Compound 61] | > 10000 nM |  | > 10000 nM | > 10000 nM | > 10000 nM | > 1000 nM |
| N#Cc1c(N)sc2c(F)ccc(-c3c(Cl)cc4c(O[C@@H]5CNC[C@H]5F)nc(OC[C@@]56CCCN5C[C@H](F)C6)nc4c3F)c12 (atropisomer, axis not shown) [Compound 64] | > 10000 nM | > 1000 nM | > 10000 nM | > 10000 nM | > 10000 nM |  |
| N#Cc1c(N)sc2c(F)ccc(-c3c(Cl)cc4c(O[C@@H]5CN[C@@H](CO)C5)nc(OC[C@@]56CCCN5C[C@H](F)C6)nc4c3F)c12 (atropisomer, axis not shown) [Compound 68] | > 10000 nM |  | > 10000 nM | > 10000 nM | > 10000 nM | > 1000 nM |
| N#Cc1c(N)sc2c(F)ccc(-c3c(Cl)cc4c(O[C@@H]5CN[C@@H](CO)C5)nc(OC[C@@]56CCCN5C[C@H](F)C6)nc4c3F)c12 (atropisomer, axis not shown) [Compound 69] | ≤ 100 nM |  | 100 to 1000 nM | 100 to 1000 nM | 100 to 1000 nM | 100 to 1000 nM |
| N#Cc1c(N)sc2c(F)ccc(-c3c(Cl)cc4c(O[C@H]5CCN[C@@H]5CO)nc(OC[C@@]56CCCN5C[C@H](F)C6)nc4c3F)c12 (atropisomer, axis not shown) [Compound 75] | > 10000 nM |  | > 10000 nM | > 10000 nM | > 10000 nM | > 1000 nM |
| N#Cc1c(N)sc2c(F)ccc(-c3c(Cl)cc4c(O[C@H]5CCN[C@@H]5CO)nc(OC[C@@]56CCCN5C[C@H](F)C6)nc4c3F)c12 (atropisomer, axis not shown) [Compound 76] | ≤ 100 nM |  | ≤ 100 nM | ≤ 100 nM | ≤ 100 nM | ≤ 100 nM |
| C[C@H]1NCC[C@H]1Oc1nc(OC[C@@]23CCCN2C[C@H](F)C3)nc2c(F)c(-c3ccc(F)c4sc(N)c(C#N)c34)c(C(F)(F)F)cc12 (single isomer, unassigned) [Compound 73] | ≤ 100 nM |  | ≤ 100 nM | ≤ 100 nM | ≤ 100 nM | ≤ 100 nM |
| C[C@H]1NCC[C@H]1Oc1nc(OC[C@@]23CCCN2C[C@H](F)C3)nc2c(F)c(-c3ccc(F)c4sc(N)c(C#N)c34)c(C(F)(F)F)cc12 (single isomer, unassigned) [Compound 74] | > 10000 nM |  | > 10000 nM | > 10000 nM | > 10000 nM | > 1000 nM |
| C[C@H]1CNCC1Oc1nc(OC[C@@]23CCCN2C[C@H](F)C3)nc2c(F)c(-c3ccc(F)c4scnc34)c(C(F)(F)F)cc12 (stereo partly shown) [Compound 12] | > 10000 nM | > 1000 nM | > 10000 nM | > 10000 nM | > 10000 nM |  |
| C[C@@H]1CNCC1Oc1nc(OC[C@@]23CCCN2C[C@H](F)C3)nc2c(F)c(-c3ccc(F)c4scnc34)c(C(F)(F)F)cc12 (stereo partly shown) [Compound 14] | > 10000 nM | > 1000 nM | > 10000 nM | > 10000 nM | > 10000 nM |  |

Now from value to molecule:

| IC50 [1] | IC50 ([2]; GP2d, 1 h) | IC50 [3] | IC50 [4] | IC50 [5] | IC50 ([2]; read-out: pERK-Gp2D-1 hr) | Structure (SMILES) |
| --- | --- | --- | --- | --- | --- | --- |
| 100 to 1000 nM | 100 to 1000 nM | 1000 to 10000 nM | 100 to 1000 nM | 1000 to 10000 nM |  | C[C@@H]1NCC[C@H]1Oc1nc(OC[C@@]23CCCN2C[C@H](F)C3)nc2c(F)c(-c3ccc(F)c4sc(N)nc34)c(C(F)(F)F)cc12 (atropisomer, axis not shown) [Compound 8] |
| > 10000 nM |  | > 10000 nM | > 10000 nM | > 10000 nM |  | C[C@@H]1NCC[C@H]1Oc1nc(OC[C@@]23CCCN2C[C@H](F)C3)nc2c(F)c(-c3ccc(F)c4sc(N)nc34)c(C(F)(F)F)cc12 (atropisomer, axis not shown) [Compound 9] |
| 100 to 1000 nM |  | 1000 to 10000 nM | 100 to 1000 nM | 1000 to 10000 nM | 100 to 1000 nM | Nc1nc2c(-c3c(C(F)(F)F)cc4c(O[C@@H]5CCNC5)nc(OC[C@@]56CCCN5C[C@H](F)C6)nc4c3Cl)ccc(F)c2s1 (atropisomer, axis not shown) [Compound 10] |
| > 10000 nM |  | > 10000 nM | > 10000 nM | > 10000 nM | > 1000 nM | Nc1nc2c(-c3c(C(F)(F)F)cc4c(O[C@@H]5CCNC5)nc(OC[C@@]56CCCN5C[C@H](F)C6)nc4c3Cl)ccc(F)c2s1 (atropisomer, axis not shown) [Compound 11] |
| > 10000 nM |  | > 10000 nM | > 10000 nM | > 10000 nM | > 1000 nM | Nc1nc2c(-c3c(C(F)(F)F)cc4c(O[C@H]5CNCC5(F)F)nc(OC[C@@]56CCCN5C[C@H](F)C6)nc4c3F)ccc(F)c2s1 (atropisomer, axis not shown) [Compound 29] |
| 1000 to 10000 nM |  | > 10000 nM | 1000 to 10000 nM | 1000 to 10000 nM |  | C[C@H]1CNCC1Oc1nc(OC[C@@]23CCCN2C[C@H](F)C3)nc2c(F)c(-c3ccc(F)c4sc(N)nc34)c(C(F)(F)F)cc12 (stereo partly shown) [Compound 2] |
| 100 to 1000 nM | ≤ 100 nM | 1000 to 10000 nM | 1000 to 10000 nM | 100 to 1000 nM |  | Nc1nc2c(-c3c(C(F)(F)F)cc4c(O[C@H]5CCNC5)nc(OC[C@@]56CCCN5C[C@H](F)C6)nc4c3F)ccc(F)c2s1 [Compound 13] |
| 100 to 1000 nM | 100 to 1000 nM | 1000 to 10000 nM | 1000 to 10000 nM | 1000 to 10000 nM |  | C[C@@H]1CNCC1Oc1nc(OC[C@@]23CCCN2C[C@H](F)C3)nc2c(F)c(-c3ccc(F)c4sc(N)nc34)c(C(F)(F)F)cc12 (stereo partly shown) [Compound 15] |
| > 10000 nM |  | > 10000 nM | 1000 to 10000 nM | 1000 to 10000 nM |  | Nc1nc2c(-c3c(C(F)(F)F)cc4c(O[C@H]5CNC[C@H]5F)nc(OC[C@@]56CCCN5C[C@H](F)C6)nc4c3F)ccc(F)c2s1 [Compound 22, 7-fluoro-4-(8-fluoro-4-(((3S,4R)-4-fluoropyrrolidin-3-yl)oxy)-2-(((2R,7aS)-2-fluorotetrahydro-1H-pyrrolizin-7a(5H)-yl)methoxy)-6-(trifluoromethyl)quinazolin-7-yl)benzo[d]thiazol-2-amine] |
